Measurements from US11992535B2, “Compounds and probes for imaging huntingtin protein” (CHDI Foundation, Inc., priority 2019, dated 2024).
Where two headings read alike, the source gives them in different places.

Target: aggregated MBP-HTT(1-89)Q46-His(6×) (Exonl-Q46) protein (Q46 protein aggregates) (Homo sapiens (Human), UniProt P42858, INS38QQQQQQQQQQQQQQQQQQQQQQQQQ)
Test: Q46 Radioligand Binding Assay
Settings: read-out: Q46_RBA EC50_
Procedure: Q46 Radioligand Binding Assay
For radioligand binding assays (RBA) MBP-HTT(1-89)Q46-His(6×) (“Exonl-Q46”) protein was generated based on a previous publication (Scherzinger et al. Cell, Vol. 90, 549-558, Aug. 8, 1997). For experiments 30 μM MBP-Exonl-Q46 was incubated with 150 μg/mL thrombin in assay buffer (150 mM NaCl, 50 mM Tris pH 8.0) and 2 mM CaCl2 for 16 hours at 37° C. Aggregated Exonl-Q46 was pelleted by centrifugation for 5 minutes at 13,000 rpm in a bench top centrifuge and re-dissolved in the same volume of assay buffer. Test compounds were prepared by titration in DMSO at 11 concentrations from 63 μM to 2 nM. For the RBA, Q46 protein aggregates and test compounds were pre-incubated in assay buffer for 20 minutes at room temperature, in 100 μL/well in a 96-well plate (pp, round bottom). Then, ligand was added in 50 μL/well and incubated for 60 minutes at 37° C. Final assay concentrations were 1 μM to 30 μM test compound, 1 μM Exonl-Q46 protein (equivalent monomer concentration) and 0.3 nM ligand [^3H3-methyl]-5-((5-methoxypyridin-2-yl)methoxy)-2-(pyrazin-2-yl)benzo[d]oxazole. Samples were transferred onto GF/B filter plates and washed 2× with 200 μL PBS using a Filtermate Harvester. After drying filter plates for 1 hour at 55° C., the back of the plates were sealed with foil and 30 μL/well scintillation fluid (Packard MicroScint 40) added, incubated for 15 minutes in the dark and counted in a MicroBeta reader. For analysis, replicate data from independent assay plates were normalized towards 0% and 100% inhibition using control wells of vehicle (0% inhibition) and 1 μM unlabelled [^3H3-methyl]-5-((5-methoxypyridin-2-yl)methoxy)-2-(pyrazin-2-yl)benzo[d]oxazole (100% inhibition). IC50 values were determined with a sigmoidal inhibition model with four variables (top, bottom, slope, IC50) in a global fit using the normalized replicate data.

[1] = same radioligand displacement on Exonl-Q46 aggregates
[2] = displacement of 0.3 nM [3H3-methyl]-5-((5-methoxypyridin-2-yl)methoxy)-2-(pyrazin-2-yl)benzo[d]oxazole from 1 μM Exonl-Q46 aggregates, method calls the values IC50

aggregated MBP-HTT(1-89)Q46-His(6×) (Exonl-Q46) protein (Q46 protein aggregates), sequence (P42858 other isoform, or with tags, fused parts or gaps, stated change not applied): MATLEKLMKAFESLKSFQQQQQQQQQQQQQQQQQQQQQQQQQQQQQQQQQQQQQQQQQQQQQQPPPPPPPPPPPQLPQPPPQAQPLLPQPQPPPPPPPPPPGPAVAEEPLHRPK

EC50 [1] | EC50 [2] | Structure (SMILES)
< 100 nM |  | COc1ccc(COc2ccc3c(c2)CN(C(=O)c2ccc(OC)nc2)CC3C)nc1 (stereo not shown) [Example 28]
100 to 500 nM | 333 nM | Cn1cc(C(=O)N2CCc3ccc(OCc4ccc(O)cn4)cc3C2)ccc1=O [Example 40, 5-(7-((5-Hydroxypyridin-2-yl)methoxy)-1,2,3,4-tetrahydroisoquinoline-2-carbonyl)-1-methylpyridin-2(1H)-one]
< 100 nM | 2.21 nM | COc1ccc(COc2ccc3c(c2)CN(c2ccc(OC)nc2)CC3)nc1 [Example 6]
< 100 nM | 1.05 nM | C=CCOc1ccc(COc2ccc3c(c2)CN(C(=O)c2ccc(OC)nc2)CC3)nc1 [Example 35, (7-((5-(Allyloxy)pyridin-2-yl)methoxy)-3,4-dihydroisoquinolin-2(1H)-yl)(6-methoxypyridin-3-yl)methanone]
< 100 nM | 13.4 nM | COc1ccc(COc2ccc3c(c2)CN(c2ccc(=O)n(C)n2)CC3)nc1 [Example 27.1]
< 100 nM | 87.5 nM | COc1ccc(COc2cccc3c2CN(C(=O)c2ccc(OC)nc2)CC3)nc1 [Example 1.13]
< 100 nM | 4.45 nM | COc1ccc(COc2cnc3c(c2)CN(C(=O)c2ccc(OCCF)nc2)CC3)nc1 [Example 24.3]
100 to 500 nM | 137 nM | COc1ccc(COc2ccc3c(c2)CN(Cc2ccc(OC)nc2)CC3)nc1 [Example 7]
< 100 nM | 3.01 nM | C=CCOc1ccc(C(=O)N2CCc3ncc(OCc4ccc(OC)cn4)cc3C2)cn1 [Example 24.1]
100 to 500 nM | 191 nM | CC(=O)N1CCc2ccc(OCc3ccc(O)cn3)cc2C1 [Example 32, 1-{7-[(5-Hydroxypyridin-2-yl)methoxy]-1,2,3,4-tetrahydroisoquinolin-2-yl}ethan-1-one]
< 100 nM | 1.96 nM | COc1ccc(COc2ccc3c(c2)CN(C(=O)c2ccc(OCF)nc2)CC3)nc1 [Example 36, (6-(Fluoromethoxy)pyridin-3-yl)(7-((5-methoxypyridin-2-yl)methoxy)-3,4-dihydroisoquinolin-2(1H)-yl)methanone]
< 100 nM | 5.59 nM | COc1ccc(COc2ccc3c(c2)CN(C(=O)c2cncc(OC)c2)CC3)nc1 [Example 1.5]
< 100 nM | 8.44 nM | COc1ccc(C(=O)N2CCc3ccc(OCc4ccc(O)cn4)cc3C2)cn1 [Example 35.1, (7-((5-Hydroxypyridin-2-yl)methoxy)-3,4-dihydroisoquinolin-2(1H)-yl)(6-methoxypyridin-3-yl)methanone]
< 100 nM | 2.02 nM | COc1ccc(COc2ccc3c(c2)CN(c2cccc(OC)n2)CC3)nc1 [Example 8.2]
< 100 nM | 1.2 nM | COc1ccc(COc2ccc3c(c2)CN(C(=O)c2cnc(OC)cn2)CC3)nc1 [Example 1.8]
< 100 nM | 2.54 nM | COc1ccc(COc2ccc3c(c2)CN(C(=O)c2ccc(C(F)(F)F)nc2)CC3)nc1 [Example 1.17]
> 500 nM |  | COc1ccc(Cn2c3c(ccc2=O)CCN(C(=O)c2ccc(OC)nc2)C3)nc1 [Example 26.1]
< 100 nM | 46.4 nM | COc1ccc(COc2ccc3c(c2)CCN(C(=O)c2ccc(=O)n(C)n2)C3)nc1 [Example 1.3]
100 to 500 nM | 333 nM | COc1ccc2c(c1)CN(C(=O)c1ccc(OC)nc1)CC2 [Example 1.6]
< 100 nM | 1.3 nM | COc1ccc(C(=O)Nc2ccc3c(c2)CN(c2ccc(OC)nc2)CC3)nc1 [Example 11, 5-Methoxy-N-[2-(6-methoxypyridin-3-yl)-1,2,3,4-tetrahydroisoquinolin-7-yl]pyridine-2-carboxamide]
< 100 nM | 1.25 nM | COc1ccc(C(=O)N2CCc3ccc(OCc4ccc(OCCF)cn4)cc3C2)cn1 [Example 38, (7-((5-(2-Fluoroethoxy)pyridin-2-yl)methoxy)-3,4-dihydroisoquino-lin-2(1H)-yl)(6-methoxypyridin-3-yl)methanone]
< 100 nM | 73.2 nM | COc1ccc(COc2ccc3c(c2)CN(C(=O)N2CCN(C)CC2)CC3)nc1 [Example 4, 7-[(5-Methoxypyridin-2-yl)methoxy]-2-(4-methylpiperazine-1-carbonyl)-1,2,3,4-tetrahydroisoquinoline]

EC50 [1] | EC50 [2] | Structure (SMILES)
< 100 nM | 39.3 nM | COc1ccc(COc2ccc3c(n2)CN(C(=O)c2ccc(OC)nc2)CC3)nc1 [Example 26, 2-[(5-Methoxypyridin-2-yl)methoxy]-7-(6-methoxypyridine-3-carbonyl)-5,6,7,8-tetrahydro-1,7-naphthyridine]
< 100 nM | 1.24 nM | COc1ccc(COc2ccc3c(c2)CN(C(=O)c2ccc(OC)nc2)CC3)nc1 [Example 1, 7-[(5-Methoxypyridin-2-yl)methoxy]-2-(6-methoxypyridine-3-carbonyl)-1,2,3,4-tetrahydroisoquinoline]
100 to 500 nM | 108 nM | COc1ccc(COc2ccc3c(c2)CN(C(=O)c2ccc(OC)nc2)C(C)C3)nc1 (stereo not shown) [Example 31, 7-[(5-Methoxypyridin-2-yl)methoxy]-2-(6-methoxypyridine-3-carbonyl)-3-methyl-1,2,3,4-tetrahydroisoquinoline]
> 500 nM | 951 nM | COc1ccc(COc2ccc3c(c2)CN(C(=O)C2CCN(C)CC2)CC3)nc1 [Example 1.15]
< 100 nM | 1.8 nM | COc1ccc(COc2ccc3c(c2)CN(C(=O)c2ccc(N(C)C)nc2)CC3)nc1 [Example 1.14]
< 100 nM | 2.65 nM | COc1ccc(COc2ccc3c(c2)CN(c2cncc(OC)c2)CC3)nc1 [Example 6.1]
> 500 nM | 1000 nM | COc1ccc(C(=O)N(C)c2ccc3c(c2)CN(C(=O)c2ccc(OC)nc2)CC3)nc1 [Example 13]
100 to 500 nM | 333 nM | COc1ccc(C(=O)N(C)c2ccc3c(c2)CN(c2ccc(OC)nc2)CC3)nc1 [Example 17, 5-Methoxy-N-[2-(6-methoxypyridin-3-yl)-1,2,3,4-tetrahydroisoquinolin-7-yl]-N-methylpyridine-2-carboxamide]
< 100 nM | 5.12 nM | COc1ccc(COc2ccc3c(c2)CN(C(=O)c2ccc(=O)n(CCF)c2)CC3)nc1 [Example 34.1]
< 100 nM | 1.7 nM | COc1ccc(COc2ccc3c(c2)CN(c2cc(OC)ccn2)CC3)nc1 [Example 8.1]
100 to 500 nM | 153 nM | COc1ccc(COc2ccc3c(c2)CN(C(=O)c2ccc(OC)nc2)CCO3)nc1 [Example 25, 7-[(5-Methoxypyridin-2-yl)methoxy]-4-(6-methoxypyridine-3-carbonyl)-2,3,4,5-tetrahydro-1,4-benzoxazepine]
< 100 nM | 43 nM | COCCn1cc(C(=O)N2CCc3ncc(OCc4ccc(OC)cn4)cc3C2)ccc1=O [Example 24.4]
100 to 500 nM | 161 nM | COc1ccc(COc2ccc3c(c2)CN(c2cnn(C)c2)CC3)nc1 [Example 29, 7-[(5-Methoxypyridin-2-yl)methoxy]-2-(1-methyl-1H-pyrazol-4-yl)-1,2,3,4-tetrahydroisoquinoline]
< 100 nM |  | COCCOc1ccc(C(=O)N2CCc3ncc(OCc4ccc(OC)cn4)cc3C2)cn1 [Example 24.2]
< 100 nM | 1.97 nM | COc1ccc(COc2cnc3c(c2)CN(c2ncc(OC)cn2)CC3)nc1 [Example 6.2]
< 100 nM | 1.65 nM | COc1ccc(COc2ccc3c(c2)CN(C(=O)OCc2ccc(OC)nc2)CC3)nc1 [Example 5.1]
< 100 nM | 48.9 nM | COc1ccc(COc2ccc3c(c2)CCN(C(=O)c2ccc(OC)nn2)C3)nc1 [Example 1.2]
< 100 nM | 8.48 nM | COc1ccc(COc2ccc3c(c2)CCN(C(=O)c2ccc(OC)nc2)C3)nc1 [Example 1.4]
< 100 nM | 86 nM | COc1ccc(COc2ccc3c(c2)CN(c2ccc(=O)n(C)c2)CC3)nc1 [Example 29.1]
100 to 500 nM | 260 nM | COc1ccc(COc2ccc3c(c2)CN(c2ccn(C)c(=O)c2)CC3)nc1 [Example 27.2]
< 100 nM | 2.91 nM | COc1ccc(COc2ccc3c(c2)CN(C(=O)c2ccc(C)nc2)CC3)nc1 [Example 1.25]
< 100 nM | 3.19 nM | COc1ccc(COc2cnc3c(c2)CN(c2ccc(OC)cn2)CC3)nc1 [Example 27, 6-(5-Methoxypyridin-2-yl)-3-[(5-methoxypyridin-2-yl)methoxy]-5,6,7,8-tetrahydro-1,6-naphthyridine]
